Assays:
Type in all cases: cell-based, Staphylococcus aureus
S. aureus CI3 [1] = experiment: Phage combined with ½ MIC antibiotics on planktonic S. aureus (OD600), CI3; conditions: ½ MIC antibiotic, phage MOI=0.2, 24 hours
Protocol: (§1) Initial screening was performed in 100 μl in 96 well plates, with follow up experiments in 10 mL culture volume. S. aureus strains were grown on 1.5% Tryptone Soya Agar (TSA) at 37° C. overnight. Single colonies were transferred to Tryptone Soya Broth (TSB) to generate a culture with a starting concentration of 5×10^5 CFU/ml. […] Antibiotics were added to the cultures at ½ MIC (according to the pretest MIC of antibiotics) if required. Optical density (OD) readings at 600 nm were recorded at 24 hours to assess the growth of bacteria co-inoculated with phage unless otherwise specified. Uninoculated, fresh media was included as a sterility control.

[2] = tested on: S. aureus ATCC51650 and CI11; experiment: Dose-dependence of clindamycin in combination with phage J-Sa36 (OD600); conditions: with J-Sa36 MOI=0.2, 24 hours; ⅛th the MIC
Protocol: as §1

S. aureus ATCC51650 = experiment: Phage replication by titer; conditions: 48 hours incubation
Protocol: (§2) Phage titers were determined against S. aureus RN4220 (ATCC) using the double layer spot assay technique. Briefly, 100 μl of a S. aureus overnight culture was mixed with 4 mL of 0.4% TSA and poured onto a 1.5% TSA plate. […] After the plates were incubated in a humidified incubator at 37° C. overnight, plaques were counted, counts were averaged, and titers of the filtrate were calculated based on the dilution.
(§3) A 100 μl sample was taken from an S. aureus culture (10 ml in TSB) after 0 and 48 hours following treatment with clindamycin, phage or a phage clindamycin co-incubation. The sample was treated with 25 μl of chloroform, shaken for 30 seconds, centrifuged (3000 rpm, 5 minutes, room temperature) and the supernatant used to determine phage titers against the same isolate. Phage titers in plaque forming units [PFU]/mL were recorded initially and at 48 hours to assess for phage replication. To allow for phage resistant (phage insensitive) bacterial isolates to show plaques, clindamycin was added to the soft agar overlay.

S. aureus CI11 = experiment: Phage replication by titer; conditions: 48 hours incubation
Protocol: as §2, §3

S. aureus CI8 = experiment: Phage replication by titer; conditions: 48 hours incubation
Protocol: as §2, §3

S. aureus CI3 [3] = experiment: Antibiotic sensitivity of the isolate selected for in vivo experiments
Protocol: The minimum inhibitory concentration (MIC) of amoxicillin, vancomycin, erythromycin, clindamycin and azithromycin against the S. aureus strains was assessed using the broth microdilution technique as previously described (Wiegand I et al., Nature protocols 3 (2): 163-175, 2008) and breakpoints defined according to CSLI guidelines. Clinical strains resistant to at least one antibiotic in three or more antibiotic categories were defined as multidrug resistant (MDR).
A fresh culture of CI3 on 1.5% TSA plates was prepared two days before inoculation. A single colony was resuspended in 0.9% saline (ca. 2 ml) to turbidity reading 0.5 McFarland Units and then a 1 in 100 dilution in TSB was cultured overnight one day before the in vivo experiment. CI3 pellets were harvested and resuspended in fresh TSB to reach 2.5×10^9 Colony Forming Units (CFU)/ml.

[4] = tested on: phage non-sensitive S. aureus strains (C43, C330, C285 and C319); experiment: Phage and clindamycin combination treatment (OD600); conditions: ½ MIC clindamycin only or phage only (MOI=1), 24 hours
Excerpt: FIG. 6 provides graphical results showing that the combination of S. aureus phage and ½ MIC clindamycin kills non-sensitive S. aureus strains: (A) S. aureus C43 treated with APTC-SA-2 and ½ MIC clindamycin; (B) S. aureus C330 treated with APTC-SA-2 and ½ MIC clindamycin; (C) S. aureus ATCC25923 treated with APTC-SA-2 and ½ MIC clindamycin; (D) S. aureus C285 treated with APTC-SA-12 and ½ MIC clindamycin; (E) S. aureus C319 treated with APTC-SA-12 and ½ MIC clindamycin; and (F) S. aureus ATCC25923 treated with APTC-SA-12 and ½ MIC clindamycin. Significance was determined compared to untreated control. Data expressed as mean±SEM for three independent experiments. ****, p<0.0001; ns, no significant. C=clindamycin;
A phage and clindamycin synergy assay was performed using 96 well plates. In brief, selected S. aureus strains (phage non-sensitive) were grown on 1.5% TSA at 37° C. overnight. A single colony was transferred to TSB to generate a culture with a starting concentration of 5×10^5 CFU/ml. Phages were added to the bacteria culture at a MOI of 1 according to phage titers. Clindamycin was added to the cultures at ½ MIC (according to the MIC assay result). Optical density (Gorski A et al., Antibiotics (Basel) 9 (11), 2020) readings at 600 nm were recorded after 24 hours.

## CCC[C@@H]1C[C@@H](C(=O)N[C@@H]([C@H]2O[C@H](SC)[C@H](O)[C@@H](O)[C@H]2O)[C@H](C)Cl)N(C)C1 [clindamycin]
S. aureus CI3 [1]
  synergistic effects with phage J-Sa36, Sa83 and Sa87 on bacterial viability (OD600): synergistic effects
[2]
  lowest effective concentration of clindamycin required to facilitate phage J-Sa36 killing: 0.025 µg/mL
S. aureus ATCC51650
  plaques from supernatant after ½ MIC clindamycin only: produced no plaques
S. aureus CI11
  plaques from supernatant after ½ MIC clindamycin only: produced no plaques
S. aureus CI8
  plaques from supernatant after ½ MIC clindamycin only: produced no plaques
S. aureus CI3 [3]
  antibiotic sensitivity of the isolate: sensitive
[4]
  growth of S. aureus bacteria vs control, single agent: similar
